In patent US11707557B2, “Compositions and devices incorporating water-insoluble therapeutic agents and methods of the use thereof” (COOK MEDICAL TECHNOLOGIES LLC, priority 2014, dated 2023):

Legend:
[1] = Drug release from injectable PG:gallate pastes (60:40) into PBS; format: physicochemical; settings: 60:40 PG:EGCG or PG:tannic acid, 2% w/w drug, PBS pH 7.4, 37° C.
Protocol: Methods: 60:40% w/w PG:EGCG or PG:tannic acid was used in these studies. 588 mg of propylene glycol was weighed into a 20 mL glass vials and 392 of EGCG or tannic acid was added followed by vortexing to distribute and dissolve the gallates. The vials were warmed to 60° C. and vortexed until all the contents were in solution. At this time 20 mg of drug was added (2% w/w) and vortexed until in solution. The following drugs were used: paclitaxel, docetaxel, retinoic acid, amphotericin B, and curcumin. 100 mg of each paste was weighed into the base of a 15 mL glass test tube and 10 mL of phosphate buffered saline was added at pH 7.4 and the tubes were incubated at 37° C. for certain times. All 10 mL of the PBS release media was removed and 1 mL analyzed by HPLC for drug content. 10 mL of fresh PBS was then added to all tubes

[2] = Rate of paclitaxel release from EGCG carrier coatings on balloon catheters; format: physicochemical
Protocol: A balloon catheter was inflated and revolved along its horizontal axis. […] The drug/EGCG solution was slowly pipetted onto the balloon using 25 microliters at a time and dried with gentle heat from an electric blowdryer. The catheter assembly was then left overnight to dry. To measure the drug release the catheter was inflated and immersed in 5 ml of PBS-albumin buffer at pH 7.4 for a specific time with mild revolution to create movement. The catheter was then removed and placed in a new tube containing 5 ml of PBS-Album in for the second drug release time point. One ml of dichloromethane was added to each 5 ml of PBS and the tube shaken. The contents were allowed to settle and the top liquid aspirated off. The dichloromemethane was allowed to dry and then the solids were redissolved in 60/40 acetonitrile/water v/v and drug quantitated by HPLC analysis (c18 column, 58/5/37 acetonitrile/methanol/water at 1 ml/min flow rate with detection at 232 nm)

pig bladder tissue [3] = assay: Uptake of docetaxel or paclitaxel into pig bladder tissue from EGCG or tannic acid solutions (Franz cells); format: in vitro ADME; settings: drug 200 microg/ml in EGCG or tannic acid at 50 mg/ml, urothelial side, 2 hours
Protocol: Methods: Fresh ex vivo pig bladders were cut into 2 cm diameter pieces and laid on franz diffusions cells. […] The solutions were then made up in tyrodes buffer pH 7.4 and 400 ul was placed on the urothelial side of the tissue for 2 hours. The tissues were then frozen and cryosectioned for radioactivity counting by liquid scintillation methods.

pig skin = test system: pig skin
Protocol: Various gallate-containing drug formulations were prepared and applied to ex vivo pig skin samples. Fresh pig skin was obtained from a local butcher, processed within three hours and then frozen. For experiments, the skin was slowly thawed, excess fat removed from the base, and cut into 1×2 cm squares. These squares were mounted and clamped on Franz diffusion cells, which kept the tissue moist and isolated and exposed a 6 mm diameter of the upper skin surface for the application of a drug loaded formulation. Skin samples were then frozen and later cryosectioned in 50 μm slices. The drug in the slices was extracted and measured by HPLC or radioactive doping methods. A drug depth profile was then established for each drug.
1. Formulations containing a drug and a gallate. The drugs were dissolved in ethanol at various concentrations along with either EGCG or TA (500 mg/mL). Each solution was pipetted into 6×5 mm diameter aluminum cups (approximately 3 mm in height) by filling and allowing the ethanol to evaporate at 50° C. until all the solution was used up (80 mg per cup).
2. Formulations containing a drug, propylene glycol (“PG”) and a gallate. 300 mg of propylene glycol was mixed with 200 mg of EGCG or TA until dissolved. Various amounts of drug were added to this mixture and dissolved. 80 mg of the resulting viscous solution was weighed into 6×5 mm aluminum cups.
3. Control Formulations. Control formulations were prepared using Glaxal base and Plogel. Glaxal base is a cream used by compounding pharmacists to manufacture topical formulations of drugs. Plogel is an alternative used for dermal formulations. […] Drug was added to a known weight of Glaxal or Plogel and levigated to produce a standard drug dispersion. These formulations were prepared the evening before the experiment. For some drugs, radioactive drug (where available) was also added as a doping additive to facilitate quantitation in tissues.
Eutectics: In some cases, gallate containing compounds and drugs were formulated in eutectic mixtures. These included a 60:40 (% w/w) mixture of menthol with ibuprofen. These agents acted as a carrier for retinoic acid, which was then dissolved in this liquid. The 3-drug eutectic/solution was then blended into the CMC/poloxamer emulsion containing EGCG (2.5%). […] The emulsion was stabilized with poloxamer.
Example 29. Pig skin studies. Aluminum cups containing drug formulations were inverted on top of the pig skin in the Franz diffusion cell so that the formulation contents were in contact with the skin. […]
Analysis. […] The amount of drug in each group of skin sections was then determined using HPLC methods, or by radioactivity counting on a liquid scintillation counter. The amount of drug in each group of skin sections was expressed as μg/g or mg/g of tissue.

pig bladder tissue [4] = assay: Uptake of paclitaxel or docetaxel into pig bladder tissue from triblock or diblock copolymer-MEPEG pastes; format: in vitro ADME; settings: EGCG or tannic acid loaded triblock copolymer paste, perivesicular side, 2 hours
Description: Methods: Fresh ex vivo pigs bladders were cut into 2 cm diameter pieces and laid on franz diffusions cells. […] The synthesis of the diblock copolymer is described in example X and is composed of a MEPEG molecule of 2000 molecular weight with polylactic acid at a molecular weight of 1330. The triblock copolymer was synthesized in house and has a composition of 35/35/30 (polycaprolactone, polylactic acid, polyethylene glycol with a total molecular weight of 4600. The triblock was synthesized by heating a mixture of caprolactone (Sigma chemicals) lactic acid (Polysciences) and Polyethylene glycol (Sigma molecular weight 1380) to 120° C. under nitrogen overnight followed by cooling and washing in hexane or cold ethanol. 100 mg of paste was applied to the perivascular side of the bladder tissue and 200 ul of tyrodes buffer pH 7.4 was added. The tissue was incubated for 2 hours at 37° C. and then the diffusion cell was disassembled, the tissue was washed free of remaining paste with excess tyrodes and the tissues were then frozen and cryosectioned for radioactivity counting by liquid scintillation methods.

Row | Structure (SMILES) | drug release from PG:gallate paste [1] | release of paclitaxel from coated balloon catheter ([2]; EGCG alone (zero percentage diblock copolymer), PBS-albumin pH 7.4) | time to complete release of paclitaxel ([2]; EGCG with 10 percentage diblock copolymer) | time to complete release of paclitaxel ([2]; EGCG with 20 percentage diblock copolymer) | release rate of paclitaxel ([2]; EGCG with 50% diblock copolymer) | drug penetration through bladder tissue (pig bladder tissue [3]) | drug uptake by pig skin (pig skin) | penetration into the bladder tissue (pig bladder tissue [4]) | drug uptake by pig skin relative to controls (pig skin)
1 | CC(=O)O[C@H]1C(=O)[C@@]2(C)[C@H]([C@H](OC(=O)c3ccccc3)[C@]3(O)C[C@H](OC(=O)[C@H](O)[C@@H](NC(=O)c4ccccc4)c4ccccc4)C(C)=C1C3(C)C)[C@]1(OC(C)=O)CO[C@@H]1C[C@@H]2O [paclitaxel] | relatively controlled release of the drug over 24 hours | all paclitaxel was released in one minute | ≤ 2 min | ≤ 2 min | slowed the release rate dramatically | high levels of drug penetration | low levels of drug uptake | allowed for the penetration | –
2 | CC(=O)O[C@@]12CO[C@@H]1C[C@H](O)[C@@]1(C)C(=O)[C@H](O)C3=C(C)[C@@H](OC(=O)[C@H](O)[C@@H](NC(=O)OC(C)(C)C)c4ccccc4)C[C@@](O)([C@@H](OC(=O)c4ccccc4)[C@H]21)C3(C)C [docetaxel] | relatively controlled release of the drug over 24 hours | – | – | – | – | high levels of drug penetration | – | allowed for the penetration | higher levels of uptake as compared to the control formulations
